# According to patent publication US8003660B2, “Modulators of muscarinic receptors” (Vertex Pharmaceuticals Incorporated, priority 2006, dated 2011):
# Like-named read-outs stand apart in the source and are kept apart here.
# Assays:
# Format in all cases: cell-based
# M1 muscarinic receptor = target: T1, M1 muscarinic receptor (Homo sapiens, UniProt P11229); assay: Functional mobilization of intracellular calcium (FLIPR) in CHO cells expressing M1; details: for Emax: CHO; for EC50: CHO cells expressing M1, FLIPR calcium
# T1 construct: expressed in transfected cells; host or cells: CHO (M1-CHO)
# T1 sequence (P11229 1-460): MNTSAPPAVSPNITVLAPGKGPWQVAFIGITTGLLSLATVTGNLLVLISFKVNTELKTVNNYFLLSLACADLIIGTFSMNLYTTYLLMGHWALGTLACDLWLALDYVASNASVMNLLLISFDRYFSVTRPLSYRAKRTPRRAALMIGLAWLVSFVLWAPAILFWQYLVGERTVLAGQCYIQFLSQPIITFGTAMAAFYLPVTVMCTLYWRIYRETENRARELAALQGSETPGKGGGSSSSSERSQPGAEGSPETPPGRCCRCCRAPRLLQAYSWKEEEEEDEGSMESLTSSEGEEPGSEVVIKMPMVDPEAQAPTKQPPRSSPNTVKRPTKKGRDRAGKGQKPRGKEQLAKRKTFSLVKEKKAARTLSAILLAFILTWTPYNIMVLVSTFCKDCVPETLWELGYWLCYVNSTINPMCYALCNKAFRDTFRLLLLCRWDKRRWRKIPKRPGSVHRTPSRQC
# Summary of the method: (§1)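 Calcium flux is read on FLIPR over 60 sec at 488/540 nm in muscarinic-receptor CHO lines. Antagonist mode adds carbachol at EC80 after 15 min compound preincubation or with simultaneous co-application. Agonist mode adds compound alone. Cells carry Fluo-3 or Calcium 3 dye in probenecid-containing pH 7.4 buffer, 0.5% DMSO final.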
# M2 muscarinic receptor = target: T2, M2 muscarinic receptor (Homo sapiens, UniProt P08172); assay: Functional mobilization of intracellular calcium (FLIPR) in CHO cells expressing M2; details: for Emax: CHO; for EC50: CHO cells expressing M2, FLIPR calcium
# T2 construct: expressed in transfected cells; host or cells: CHO (M2-CHO)
# T2 sequence (P08172 1-466): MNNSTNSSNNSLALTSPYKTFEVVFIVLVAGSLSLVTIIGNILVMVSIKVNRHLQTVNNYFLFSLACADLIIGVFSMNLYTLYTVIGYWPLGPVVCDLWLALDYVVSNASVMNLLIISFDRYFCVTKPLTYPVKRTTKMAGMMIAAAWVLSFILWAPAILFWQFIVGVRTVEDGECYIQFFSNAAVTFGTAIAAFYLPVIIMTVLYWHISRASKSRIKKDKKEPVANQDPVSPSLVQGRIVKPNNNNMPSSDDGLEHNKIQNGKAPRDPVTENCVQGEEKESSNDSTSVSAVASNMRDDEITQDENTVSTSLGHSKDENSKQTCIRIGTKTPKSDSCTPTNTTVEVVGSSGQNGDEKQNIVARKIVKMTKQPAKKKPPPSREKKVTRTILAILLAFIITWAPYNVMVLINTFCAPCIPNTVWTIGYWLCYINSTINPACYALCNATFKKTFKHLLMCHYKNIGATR
# Summary of the method: as §1
# M3 muscarinic receptor = target: T3, M3 muscarinic receptor (Homo sapiens, UniProt P20309); assay: Functional mobilization of intracellular calcium (FLIPR) in CHO cells expressing M3; details: for Emax: CHO; for EC50: CHO cells expressing M3, FLIPR calcium
# T3 construct: expressed in transfected cells; host or cells: CHO (M3-CHO)
# T3 sequence (P20309 whole entry): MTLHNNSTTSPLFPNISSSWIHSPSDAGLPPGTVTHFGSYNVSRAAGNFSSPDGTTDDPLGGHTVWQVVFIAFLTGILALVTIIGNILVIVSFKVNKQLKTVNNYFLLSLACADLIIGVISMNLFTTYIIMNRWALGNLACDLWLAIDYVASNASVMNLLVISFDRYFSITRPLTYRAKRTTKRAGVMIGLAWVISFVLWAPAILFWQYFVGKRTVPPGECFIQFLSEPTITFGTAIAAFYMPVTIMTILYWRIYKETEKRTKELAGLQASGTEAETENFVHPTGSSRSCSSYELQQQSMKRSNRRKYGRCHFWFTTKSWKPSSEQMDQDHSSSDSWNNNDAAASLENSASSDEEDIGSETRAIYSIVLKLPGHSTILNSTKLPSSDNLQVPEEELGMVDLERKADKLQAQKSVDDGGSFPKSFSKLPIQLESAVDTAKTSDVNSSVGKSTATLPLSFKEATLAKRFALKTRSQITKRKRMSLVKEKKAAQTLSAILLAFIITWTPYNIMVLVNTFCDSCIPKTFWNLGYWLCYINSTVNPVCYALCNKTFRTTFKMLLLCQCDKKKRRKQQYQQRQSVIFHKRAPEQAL
# Summary of the method: as §1
# M4 muscarinic receptor = target: T4, M4 muscarinic receptor (Homo sapiens, UniProt P08173); assay: Functional mobilization of intracellular calcium (FLIPR) in CHO cells expressing M4; details: for Emax: CHO; for EC50: CHO cells expressing M4, FLIPR calcium
# T4 construct: expressed in transfected cells; host or cells: CHO (M4-CHO)
# T4 sequence (P08173 1-479): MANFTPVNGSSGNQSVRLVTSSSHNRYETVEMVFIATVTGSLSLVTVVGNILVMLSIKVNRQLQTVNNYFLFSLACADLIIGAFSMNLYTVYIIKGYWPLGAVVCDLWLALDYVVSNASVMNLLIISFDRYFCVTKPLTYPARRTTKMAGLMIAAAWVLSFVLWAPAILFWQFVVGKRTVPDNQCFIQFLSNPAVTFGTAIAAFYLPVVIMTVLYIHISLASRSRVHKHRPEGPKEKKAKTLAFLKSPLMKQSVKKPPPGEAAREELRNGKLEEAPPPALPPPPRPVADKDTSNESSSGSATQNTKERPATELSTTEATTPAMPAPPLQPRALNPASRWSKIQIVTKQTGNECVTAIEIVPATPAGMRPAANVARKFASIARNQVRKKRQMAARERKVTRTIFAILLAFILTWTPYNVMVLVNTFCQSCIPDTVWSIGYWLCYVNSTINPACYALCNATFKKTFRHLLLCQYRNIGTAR
# Summary of the method: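 Recombinant CHO cells loaded with Fluo-3 AM or Calcium 3 dye in pH 7.4 buffer containing 1 mM probenecid, with 0.5% final DMSO. For agonism, compound is added directly. For inhibition, it is preincubated 15 min, or co-applied, before carbachol at EC80. FLIPR fluorescence (ex 488, em 540 nm) is recorded for 60 s.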
# [1] = 100% efficacy = maximum response obtained with the Carbachol control
# [2] = 100% = maximum response obtained with the Carbachol control, read-out: M1 Efficacy
# [3] = 100% = maximum response obtained with the Carbachol control, read-out: M2 Efficacy
# [4] = 100% = maximum response obtained with the Carbachol control, read-out: M3 Efficacy
# [5] = 100% = maximum response obtained with the Carbachol control, read-out: M4 Efficacy
SMILES,"M1 Activity (M1 muscarinic receptor; CHO cells expressing M1, FLIPR calcium assay)",Emax (M1 muscarinic receptor; [1]),"M2 Activity (M2 muscarinic receptor; CHO cells expressing M2, FLIPR calcium assay)",Emax (M2 muscarinic receptor; [1]),"M3 Activity (M3 muscarinic receptor; CHO cells expressing M3, FLIPR calcium assay)",Emax (M3 muscarinic receptor; [1]),"M4 Activity (M4 muscarinic receptor; CHO cells expressing M4, FLIPR calcium assay)",Emax (M4 muscarinic receptor; [1]),EC50 (M1 muscarinic receptor),Emax (M1 muscarinic receptor; [2]),EC50 (M2 muscarinic receptor),Emax (M2 muscarinic receptor; [3]),EC50 (M3 muscarinic receptor),Emax (M3 muscarinic receptor; [4]),EC50 (M4 muscarinic receptor),Emax (M4 muscarinic receptor; [5])
CC(=O)N[C@H]1CC2(CCN(CC(=O)NCC(C)C)CC2)c2ccccc21 [compound 235],+ (activity was measured to be greater than 5.0 μM),< 25%,+ (activity was measured to be greater than 5.0 μM),< 25%,+ (activity was measured to be greater than 5.0 μM),< 25%,+ (activity was measured to be greater than 5.0 μM),< 25%,–,–,–,–,–,–,–,–
CC(C)(C)CCN1CCC2(CC[C@H](NC(=O)C3CCN(C(=O)c4ccccc4)CC3)c3ccccc32)CC1 [compound 36],–,–,–,–,–,–,–,–,< 2 µM,25 to 100%,> 5 µM,< 25%,> 5 µM,< 25%,< 2 µM,25 to 100%
CCN(C(=O)[C@@H](C)OC)[C@H]1CCC2(CCN(CCC(C)(C)C)CC2)c2ccccc21 [compound 116],–,–,–,–,–,–,–,–,> 5 µM,25 to 100%,> 5 µM,< 25%,> 5 µM,< 25%,< 2 µM,25 to 100%
C[C@@H](O)CC(=O)N[C@H]1CCC2(CCN(CCC(C)(C)C)CC2)c2ccccc21 [compound 85],–,–,–,–,–,–,–,–,< 2 µM,25 to 100%,< 2 µM,25 to 100%,> 5 µM,< 25%,< 2 µM,25 to 100%
CCN(C(=O)CCNC(C)=O)[C@@H]1CCC2(CCN(CCC(C)(C)C)CC2)c2ccccc21 [compound 100],–,–,–,–,–,–,–,–,> 5 µM,< 25%,> 5 µM,< 25%,> 5 µM,< 25%,< 2 µM,25 to 100%
CC(=O)N[C@H]1CCC2(CCN(CC(C)C)CC2)c2ccccc21 [compound 104],–,–,–,–,–,–,–,–,2 to 5 µM,25 to 100%,> 5 µM,25 to 100%,> 5 µM,< 25%,2 to 5 µM,25 to 100%
CC(=O)N[C@H]1CCC2(CCN(CC=C(C)C)CC2)c2ccccc21 [compound 150],–,–,–,–,–,–,–,–,> 5 µM,25 to 100%,> 5 µM,< 25%,> 5 µM,< 25%,2 to 5 µM,25 to 100%
Cn1cc(C(=O)N[C@@H]2CCC3(CCN(CCC(C)(C)C)CC3)c3ccccc32)cn1 [compound 129],–,–,–,–,–,–,–,–,> 5 µM,< 25%,> 5 µM,< 25%,> 5 µM,< 25%,< 2 µM,25 to 100%
CCN(C(=O)CCC(=O)NC)[C@H]1CCC2(CCN(CCC(C)(C)C)CC2)c2ccccc21 [compound 127],–,–,–,–,–,–,–,–,< 2 µM,25 to 100%,2 to 5 µM,< 25%,> 5 µM,< 25%,< 2 µM,25 to 100%
